Molecules are shown by their SMILES.

Assay in the first series: not given
The settings on record: human, 2 h, 20 µM, pH 7.4.
The compound `Nc1c2c(nc3ccccc13)CCCC2` [Tacrine] yielded an RI integrated area of 243.5 count.

A short description of the next series: cysteine trapping assay ([35S]cysteine, HPLC with radiomatic detector) for reactive metabolites. The settings on record: human liver microsome 2 mg/mL, L-[35S]-Cysteine, NADPH, 37 °C, 2 h. Background: Microsomes from liver hold many membrane-bound enzymes, among them those of drug oxidation.
Protocol: The reagents for making the reaction solution were phosphate buffer (pH 7.4; 100 mM), ethylenediaminetetraacetic acid (EDTA; 1 mM) (Tokyo Kasei, Tokyo, Japan), MgCl2 hexahydrate (Fuji Film Wako Co., Ltd., Osaka, Japan, reagent special grade; 3 mM), glucose-6-phosphate (G6P; 5 mM) (Roche, Basel, Switzerland), G6P dehydrogenase (G6PDH; 1 IU) (Oriental Yeast Co., Ltd., Tokyo, Japan), human liver microsome solution (Xenotech, Kansas City, MO, USA; 2 mg/mL), and L-[35S]-Cysteine (PerkinElmer Japan Co., Ltd., Kanagawa, Japan; 3.7 MBq/mL), which were prepared using ultrapure water. The evaluation compound was dissolved in dimethyl sulfoxide (DMSO) and its concentration was adjusted to 4 mM. This was used as a substrate solution.
On ice, 239 µL of the reaction solution was dispensed into a glass tube and then 1.25 µL of the substrate solution was added, mixed, and placed in a water bath (PERSONAL-11, Taitec Co., Ltd., Saitama, Japan) at 37 °C. After pre-incubation for 5 min, 10 µL of 25 mM nicotinamide adenine dinucleotide phosphate (NADPH) (Roche, Basel, Switzerland) solution was added and mixed to a final concentration of 20 µM to initiate a metabolic reaction and incubated in a water bath at 37 °C for 2 h. After incubation, 500 µL of acetonitrile was added and mixed, and the tube was chilled on ice to deproteinize, after which 50 µL of 250 mM GSH solution was added and mixed to stop the reaction, and centrifuged (approximately 1500× g, 4°C, 10 min, CF16RXII, Hitachi, Ltd., Tokyo, Japan). After centrifugation, 750 µL of the supernatant was transferred to a new glass tube and concentrated by vacufugation (VC-96N, Taitec Co., Ltd., Saitama, Japan) for 2 h. After concentrating the solution, we added 100 µL of the redissolving solution (40% methanol solution), mixed it with a vortex (IS-MBI minimixer, Ikeda Rika Co., Ltd., Tokyo, Japan) to redissolve, and then the sample was placed in a filter tube [Merck Millipore, Darmstadt, Germany] and centrifuged (approximately 5000× g, room temperature, 10 min).
Both High Performance Liquid Chromatography (HPLC) (Nexera XR, Shimadzu Corporation, Kyoto, Japan) and a radiomatic detector (Radiomatic 610TR, PerkinElmer Japan Co., Ltd.) were used to analyze the prepared samples. The 35S content was detected by running the separated sample via the 45-min analytical method through a radiomatic detector. The mobile phase was composed of a gradient of 0.1% (v/v) formic acid/water and 0.1% (v/v) formic acid/acetonitrile, and the chromatographic separation was performed using a column (Synergi 4 μm Hydro-RP 80A 150 × 3.00 mm, Phenomenex, Torrance, CA, USA).
Considering this, the amount of covalent binding in microsomes in the in vitro covalent binding test of 50 pmol/g or more was judged as a risk. The threshold of the total RI integrated area in cysteine trapping at that time was about 1000 counts. Therefore, we labeled compounds with more than 1000 counts of RI integrated area as positive, and those with less than 1000 counts as negative.
Regarding `Cc1c(N(C)C)c(=O)n(-c2ccccc2)n1C` [Aminopyrine], the RI integrated area turned out to be 44.3 count. `CCN(CC)Cc1cc(Nc2ccnc3cc(Cl)ccc23)ccc1O` [Amodiaquine]: the RI integrated area was 346.7 count.

For the compound `CCc1oc2ccccc2c1C(=O)c1cc(Br)c(O)c(Br)c1` [Benzbromarone], the RI integrated area was 4516.4 count. As for `Cn1c(=O)c2c(ncn2C)n(C)c1=O` [Caffeine], the RI integrated area was 22.4 count. With `NC(=O)N1c2ccccc2C=Cc2ccccc21` [Carbamazepine], the RI integrated area was determined as 61.8 count. Consider `COC(=O)[C@H](c1ccccc1Cl)N1CCc2sccc2C1` [Clopidogrel], for which the RI integrated area came out at 708.2 count. Turning to `O=C(O)Cc1ccccc1Nc1c(Cl)cccc1Cl` [Diclofenac], the RI integrated area is recorded as 1230.1 count. As to `CNCCC(Oc1ccc(C(F)(F)F)cc1)c1ccccc1` (stereo not shown) [Fluoxetine], the RI integrated area worked out at 153.8 count. Consider `CC(C)C(=O)Nc1ccc([N+](=O)[O-])c(C(F)(F)F)c1` [Flutamide], for which the RI integrated area was determined as 680.4 count. Consider `COc1ccc2c(c1)c(CC(=O)O)c(C)n2C(=O)c1ccc(Cl)cc1` [Indomethacin], for which the RI integrated area came to 89.0 count. As for `C[C@H]1COc2c(N3CCN(C)CC3)c(F)cc3c(=O)c(C(=O)O)cn1c23` [Levofloxacin], the RI integrated area is 150.3 count.

`O=C1NC(=O)C(c2ccccc2)(c2ccccc2)N1` [Phenytoin]: the RI integrated area turned out to be 34.7 count. On to `CCc1ccc(CCOc2ccc(CC3SC(=O)NC3=O)cc2)nc1` (stereo not shown) [Pioglitazone], for which the RI integrated area is recorded as 105.8 count. With `CC[C@H](C)C(=O)O[C@H]1C[C@H](O)C=C2C=C[C@H](C)[C@H](CC[C@@H](O)C[C@@H](O)CC(=O)O)[C@H]21` [Pravastatin], the RI integrated area is given as 25.4 count.

For `CC(C)NCC(O)COc1cccc2ccccc12` (stereo not shown) [Propranolol], the RI integrated area was 3667.2 count. As for `CC(C)c1nc(CN(C)C(=O)N[C@H](C(=O)N[C@@H](Cc2ccccc2)C[C@H](O)[C@H](Cc2ccccc2)NC(=O)OCc2cncs2)C(C)C)cs1` [Ritonavir], the RI integrated area was 593.9 count. As to `CN(CCOc1ccc(CC2SC(=O)NC2=O)cc1)c1ccccn1` (stereo not shown) [Rosiglitazone], the RI integrated area is 1593.7 count.

As for `CC/C(=C(\c1ccccc1)c1ccc(OCCN(C)C)cc1)c1ccccc1` [Tamoxifen], the RI integrated area is 162.1 count. Consider `O=C(O)COc1ccc(C(=O)c2cccs2)c(Cl)c1Cl` [Tienilic acid], for which the RI integrated area came out at 3783.7 count. Consider `Cc1c(C)c2c(c(C)c1O)CCC(C)(COc1ccc(CC3SC(=O)NC3=O)cc1)O2` (stereo not shown) [Troglitazone], for which the RI integrated area was 521.7 count. For `COc1cc(C(=O)NS(=O)(=O)c2ccccc2C)ccc1Cc1cn(C)c2ccc(NC(=O)OC3CCCC3)cc12` [Zafirlukast], the RI integrated area is 263.4 count. Turning to `Cc1cc(CC(=O)O)n(C)c1C(=O)c1ccc(Cl)cc1` [Zomepirac], the RI integrated area is reported as 217.5 count.

The series is the same for the next values; noted with them: threshold area 1000.
As to `CCc1ccc(CCOc2ccc(CC3SC(=O)NC3=O)cc2)nc1` (stereo not shown) [Pioglitazone], the “outcome in the cysteine trapping assay” value was “negative”.

As for `Cc1c(C)c2c(c(C)c1O)CCC(C)(COc1ccc(CC3SC(=O)NC3=O)cc1)O2` (stereo not shown) [Troglitazone], the “outcome in the cysteine trapping assay” value was “negative”.

For the origin of these results see PMC11117661, “Development of a Novel In Silico Classification Model to Assess Reactive Metabolite Formation in the Cysteine Trapping Assay and Investigation of Important Substructures” (Biomolecules, 2024).
